Data published in patent US9777000B2, “Pyrazole derivative” (MOCHIDA PHARMACEUTICAL CO., LTD., priority 2013, dated 2017).

Molecular target: human PDE10 (Homo sapiens (Human), UniProt Q9Y233)
Test: Evaluation of enzyme inhibitory activity: human PDE10 inhibitory effect (IMAP TR-FRET)
Type: biochemical
Conditions: cAMP substrate
Description: (Evaluation of Enzyme Inhibitory Activity: Human PDE10 Inhibitory Effect)
IMAP TR-FRET Phosphodiersterase Evaluation Assay Kit (Molecular Device) was used for the measurement. Ten μL of a diluted test compound having each concentration and 5 μL of the enzyme PDE10 (BPA Bioscience) that had been diluted to 2 ng/mL with 1×IMAP Reaction Buffer (prepared with 5×included with the kit, 10 mM Tris-HCl, pH=7.2, 10 mM MgCl2, 0.05% NaN3, and 0.1% BSA) containing 0.1% BSA were added to a 384-well plate (Corning). The obtained mixture was then pre-incubated at room temperature for 5 minutes. Thereafter, 5 μL of cAMP substrate solution which was included with the kit and diluted to 400 nM with 1×IMAP Reaction Buffer containing 0.1% BSA, was added to the reaction solution, and the obtained mixture was reacted at room temperature for 60 minutes. Thereafter, 60 μL of an IMAP TR-FRET Binding solution included with the kit was further added to the reaction solution, and the obtained mixture was then left for 3 hours or more. Subsequently, using ARVO SX (PerkinElmer), the fluorescent intensity of Terbium (Emission=490 nm) and TR-FRET (Emission=520 nm) in the reaction solution were measured at an excitation wavelength of 340 nm, so as to calculate the amount of the generated 5′-AMP. The count of a well to which a solvent had been added instead of the test compound was set at 0%, and the count of a well to which the enzyme PDE10 had not been added was set at 100%. Thus, the inhibitory activity of each test compound was calculated.
The PDE10 inhibitory activity of the test compound was indicated with an IC50 value. […] The test compounds are shown in Table 3 (Table 3-1 and Table 3-2).

human PDE10, sequence (Q9Y233 whole entry): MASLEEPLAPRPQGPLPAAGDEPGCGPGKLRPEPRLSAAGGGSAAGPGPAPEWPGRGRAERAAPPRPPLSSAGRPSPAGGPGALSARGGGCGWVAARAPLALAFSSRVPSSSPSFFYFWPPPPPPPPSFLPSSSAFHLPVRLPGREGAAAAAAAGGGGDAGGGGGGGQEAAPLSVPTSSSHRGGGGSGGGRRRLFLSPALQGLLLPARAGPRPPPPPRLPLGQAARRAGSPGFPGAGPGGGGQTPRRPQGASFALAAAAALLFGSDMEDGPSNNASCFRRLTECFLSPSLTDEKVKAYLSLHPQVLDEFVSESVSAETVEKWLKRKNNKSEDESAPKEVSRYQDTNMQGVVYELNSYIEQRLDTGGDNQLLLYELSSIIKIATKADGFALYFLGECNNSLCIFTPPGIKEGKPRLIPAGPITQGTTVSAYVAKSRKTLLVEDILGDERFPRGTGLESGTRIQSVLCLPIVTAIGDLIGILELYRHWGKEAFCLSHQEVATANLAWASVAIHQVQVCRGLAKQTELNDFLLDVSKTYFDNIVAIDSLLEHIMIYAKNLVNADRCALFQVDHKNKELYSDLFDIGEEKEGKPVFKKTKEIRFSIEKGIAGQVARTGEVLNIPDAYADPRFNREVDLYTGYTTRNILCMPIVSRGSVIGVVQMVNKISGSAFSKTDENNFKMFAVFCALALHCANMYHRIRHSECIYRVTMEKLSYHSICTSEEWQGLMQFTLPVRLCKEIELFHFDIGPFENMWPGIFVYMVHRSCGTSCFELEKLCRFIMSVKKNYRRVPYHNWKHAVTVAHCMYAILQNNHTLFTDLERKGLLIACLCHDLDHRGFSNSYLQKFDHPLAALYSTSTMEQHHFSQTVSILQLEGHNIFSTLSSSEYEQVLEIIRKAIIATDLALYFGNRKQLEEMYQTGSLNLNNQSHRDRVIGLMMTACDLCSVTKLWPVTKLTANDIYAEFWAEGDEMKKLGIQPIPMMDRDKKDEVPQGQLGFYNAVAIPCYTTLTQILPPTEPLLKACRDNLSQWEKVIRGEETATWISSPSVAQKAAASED

Compound	IC50 [nM]
Cc1ncc(Cl)c(-c2cnn(C)c2C(=O)Nc2cc3nc(-c4ccccc4)nn3cc2F)n1 [Example 3.41, 4-(5-chloro-2-methylpyrimidin-4-yl)-N-(6-fluoro-2-phenyl-[1,2,4]triazolo[1,5-a]pyridin-7-yl)-1-methyl-1H-pyrazole-5-carboxamide]	< 5
COc1cncc(-c2cnn(C)c2C(=O)Nc2cc3nc(-c4ccccc4)nn3cc2F)n1 [Example 3.42, N-(6-fluoro-2-phenyl-[1,2,4]triazolo[1,5-a]pyridin-7-yl)-4-(6-methoxypyrazin-2-yl)-1-methyl-1H-pyrazole-5-carboxamide]	< 5
Cc1ccnc(-c2cnn(C)c2C(=O)Nc2cc3nc(-c4ccccc4)nn3cc2F)n1 [Example 3.43, N-(6-fluoro-2-phenyl-[1,2,4]triazolo[1,5-a]pyridin-7-yl)-1-methyl-4-(4-methylpyrimidin-2-yl)-1H-pyrazole-5-carboxamide]	< 5
Cc1cc(C)nc(-c2cnn(C)c2C(=O)Nc2cc3nc(-c4ccccc4)nn3cc2F)n1 [Example 3.44, 4-(4,6-dimethylpyrimidin-2-yl)-N-(6-fluoro-2-phenyl-[1,2,4]triazolo[1,5-a]pyridin-7-yl)-1-methyl-1H-pyrazole-5-carboxamide]	< 5
Cc1ccc(-c2cnn(C)c2C(=O)Nc2cc3nc(-c4ccccc4)nn3cc2F)nn1 [Example 3.45, N-(6-fluoro-2-phenyl-[1,2,4]triazolo[1,5-a]pyridin-7-yl)-1-methyl-4-(6-methylpyridazin-3-yl)-1H-pyrazole-5-carboxamide]	< 5
Cc1cnnc(-c2cnn(C)c2C(=O)Nc2cc3nc(-c4ccccc4)nn3cc2F)c1 [Example 3.46, N-(6-fluoro-2-phenyl-[1,2,4]triazolo[1,5-a]pyridin-7-yl)-1-methyl-4-(5-methylpyridazin-3-yl)-1H-pyrazole-5-carboxamide]	< 5
Cn1ncc(-c2cccnn2)c1C(=O)Nc1cc2nc(-c3ccccc3)nn2cc1F [Example 3.47, N-(6-fluoro-2-phenyl-[1,2,4]triazolo[1,5-a]pyridin-7-yl)-1-methyl-4-(pyridazin-3-yl)-1H-pyrazole-5-carboxamide]	< 5
Cn1cnc(-c2cnn(C)c2C(=O)Nc2cc3nc(-c4ccccc4)nn3cc2F)c1 [Example 3.48, N-(6-fluoro-2-phenyl-[1,2,4]triazolo[1,5-a]pyridin-7-yl)-1-methyl-4-(1-methyl-1H-imidazol-4-yl)-1H-pyrazole-5-carboxamide]	< 5
Cc1ncc(C)c(-c2cnn(C)c2C(=O)Nc2cc3nc(-c4cccnc4)nn3cc2F)n1 [Example 3.49, 4-(2,5-dimethylpyrimidin-4-yl)-N-(6-fluoro-2-(pyridin-3-yl)-[1,2,4]triazolo[1,5-a]pyridin-7-yl)-1-methyl-1H-pyrazole-5-carboxamide]	< 5
Cc1ccc(-c2cnn(C)c2C(=O)Nc2cc3nc(-c4ccccc4)nn3cc2F)nc1 [Example 3.51, N-(6-fluoro-2-phenyl-[1,2,4]triazolo[1,5-a]pyridin-7-yl)-1-methyl-4-(5-methylpyridin-2-yl)-1H-pyrazole-5-carboxamide]	< 5
COc1ccnc(-c2cnn(C)c2C(=O)Nc2cc3nc(-c4ccccc4)nn3cc2F)c1 [Example 3.52, N-(6-fluoro-2-phenyl-[1,2,4]triazolo[1,5-a]pyridin-7-yl)-4-(4-methoxypyridin-2-yl)-1-methyl-1H-pyrazole-5-carboxamide]	< 5
Cc1cc(C)nc(-c2cnn(C)c2C(=O)Nc2cc3nc(-c4ccc(F)cc4)nn3cc2F)c1 [Example 3.54, 4-(4,6-dimethylpyridin-2-yl)-N-(6-fluoro-2-(4-fluorophenyl)-[1,2,4]triazolo[1,5-a]pyridin-7-yl)-1-methyl-1H-pyrazole-5-carboxamide]	< 5
Cc1ccnc(-c2cnn(C)c2C(=O)Nc2ccn3nc(N4CCC[C@@H]4C)nc3c2)c1 [Example 4.4, (S)-1-methyl-4-(4-methylpyridin-2-yl)-N-(2-(2-methylpyrrolidin-1-yl)-[1,2,4]triazolo[1,5-a]pyridin-7-yl)-1H-pyrazole-5-carboxamide]	< 5
COc1ccnc(-c2cnn(C)c2C(=O)Nc2ccn3nc(N4CCC[C@@H]4C)nc3c2)c1 [Example 4.5, (S)-4-(4-methoxypyridin-2-yl)-1-methyl-N-(2-(2-methylpyrrolidin-1-yl)-[1,2,4]triazolo[1,5-a]pyridin-7-yl)-1H-pyrazole-5-carboxamide]	< 5
Cc1cncc(-c2cnn(C)c2C(=O)Nc2ccn3nc(N4CCC[C@@H]4C)nc3c2)n1 [Example 4.6, (S)-1-methyl-4-(6-methylpyrazin-2-yl)-N-(2-(2-methylpyrrolidin-1-yl)-[1,2,4]triazolo[1,5-a]pyridin-7-yl)-1H-pyrazole-5-carboxamide]	< 5
Cc1cccc(-c2cnn(C)c2C(=O)Nc2ccn3nc(N4CCC[C@@H]4C)nc3c2)n1 [Example 4.7, (S)-1-methyl-4-(6-methylpyridin-2-yl)-N-(2-(2-methylpyrrolidin-1-yl)-[1,2,4]triazolo[1,5-a]pyridin-7-yl)-1H-pyrazole-5-carboxamide]	< 5
Cc1cc(C)nc(-c2cnn(C)c2C(=O)Nc2ccn3nc(N4CCC[C@@H]4C)nc3c2)c1 [Example 4.8, (S)-4-(4,6-dimethylpyridin-2-yl)-1-methyl-N-(2-(2-methylpyrrolidin-1-yl)-[1,2,4]triazolo[1,5-a]pyridin-7-yl)-1H-pyrazole-5-carboxamide]	< 5
Cc1sc(-c2cnn(C)c2C(=O)Nc2ccn3nc(N4CCC[C@@H]4C)nc3c2)nc1C(F)F [Example 4.9, (S)-4-(4-(difluoromethyl)-5-methylthiazol-2-yl)-1-methyl-N-(2-(2-methylpyrrolidin-1-yl)-[1,2,4]triazolo[1,5-a]pyridin-7-yl)-1H-pyrazole-5-carboxamide]	< 5
Cn1ncc(-c2nc(C(F)F)cs2)c1C(=O)Nc1ccn2nc(N3CC[C@@H](F)C3)nc2c1 [Example 4.12, (R)-4-(4-(difluoromethyl)thiazol-2-yl)-N-(2-(3-fluoropyrrolidin-1-yl)-[1,2,4]triazolo[1,5-a]pyridin-7-yl)-1-methyl-1H-pyrazole-5-carboxamide]	< 5
Cn1ncc(-c2nc(C(F)(F)F)cs2)c1C(=O)Nc1ccn2nc(N3CC[C@@H](F)C3)nc2c1 [Example 4.13, (R)-N-(2-(3-fluoropyrrolidin-1-yl)-[1,2,4]triazolo[1,5-a]pyridin-7-yl)-1-methyl-4-(4-(trifluoromethyl)thiazol-2-yl)-1H-pyrazole-5-carboxamide]	< 5
Cn1ncc(-c2nc(C(F)F)cs2)c1C(=O)Nc1ccn2nc(N3CC[C@H](F)C3)nc2c1 [Example 4.15, (S)-4-(4-(difluoromethyl)thiazol-2-yl)-N-(2-(3-fluoropyrrolidin-1-yl)-[1,2,4]triazolo[1,5-a]pyridin-7-yl)-1-methyl-1H-pyrazole-5-carboxamide]	< 5
Cn1ncc(-c2cccc(C(F)(F)F)n2)c1C(=O)Nc1ccn2nc(N3CC[C@H](F)C3)nc2c1 [Example 4.16, (S)-N-(2-(3-fluoropyrrolidin-1-yl)-[1,2,4]triazolo[1,5-a]pyridin-7-yl)-1-methyl-4-(6-(trifluoromethyl)pyridin-2-yl)-1H-pyrazole-5-carboxamide]	< 5
Cc1ccnc(-c2cnn(C)c2C(=O)Nc2ccn3nc(N4CC[C@H](F)C4)nc3c2)c1 [Example 4.17, (S)-N-(2-(3-fluoropyrrolidin-1-yl)-[1,2,4]triazolo[1,5-a]pyridin-7-yl)-1-methyl-4-(4-methylpyridin-2-yl)-1H-pyrazole-5-carboxamide]	< 5
COc1ccnc(-c2cnn(C)c2C(=O)Nc2ccn3nc(N4CC[C@H](F)C4)nc3c2)c1 [Example 4.18, (S)-N-(2-(3-fluoropyrrolidin-1-yl)-[1,2,4]triazolo[1,5-a]pyridin-7-yl)-4-(4-methoxypyridin-2-yl)-1-methyl-1H-pyrazole-5-carboxamide]	< 5
Cc1cncc(-c2cnn(C)c2C(=O)Nc2ccn3nc(N4CC[C@H](F)C4)nc3c2)n1 [Example 4.19, (S)-N-(2-(3-fluoropyrrolidin-1-yl)-[1,2,4]triazolo[1,5-a]pyridin-7-yl)-1-methyl-4-(6-methylpyrazin-2-yl)-1H-pyrazole-5-carboxamide]	< 5
Cc1cccc(-c2cnn(C)c2C(=O)Nc2ccn3nc(N4CC[C@H](F)C4)nc3c2)n1 [Example 4.21, (S)-N-(2-(3-fluoropyrrolidin-1-yl)-[1,2,4]triazolo[1,5-a]pyridin-7-yl)-1-methyl-4-(6-methylpyridin-2-yl)-1H-pyrazole-5-carboxamide]	< 5
Cn1ncc(-c2nc(C(F)(F)F)cs2)c1C(=O)Nc1ccn2nc(N3CC[C@H](F)C3)nc2c1 [Example 4.22, (S)-N-(2-(3-fluoropyrrolidin-1-yl)-[1,2,4]triazolo[1,5-a]pyridin-7-yl)-1-methyl-4-(4-(trifluoromethyl)thiazol-2-yl)-1H-pyrazole-5-carboxamide]	< 5
